This is an account of results in PMC11990524, “Design and Synthesis of Novel 6-(Substituted phenyl)-[1,3]dioxolo[4′,5′:4,5]benzo[1,2-d]thiazole Compounds as Tyrosinase Inhibitors: In Vitro and In Vivo Insights” (Molecules, 2025).

Test [1] is described as follows: DPPH radical scavenging assay. The following applies: 500 μM; 30 min in the dark. As for the experimental part:
DPPH radical scavenging activity was determined by mixing the DPPH solution with compounds 1–13, leaving it in the dark at 20 °C for 30 min, and measuring the optical density at 517 nm. Ascorbic acid (AA) was used as a positive control to compare the scavenging activity. All test samples were used at 500 μM.
An aliquot (20 μL) of test sample (compounds 1–13 and ascorbic acid [positive control]; 5 mM) in DMSO and 180 μL DPPH solution (0.2 mM) in methanol were mixed in each well of a 96-well plate. The mixed solution was kept in the dark at 18 °C for 30 min. A VE microplate reader was used to measure the optical density of each well at 517 nm.

Test [2] deals with mushroom tyrosinase (Agaricus bisporus, UniProt C7FF04). The experiment in a line: Mushroom tyrosinase inhibitory activity assay (L-dopa or L-tyrosine as substrate). The format is biochemical. Particulars: 50 μM, read-out: Inhibition (%, Mean ± SEM) at 50 μM (converted). The method, then: In the inhibition experiments, L-dopa and L-tyrosine were used as enzyme substrates.
The plate was incubated at 37 °C for 30 min, and absorbance of dopachrome formation was recorded spectrophotometrically at 475 nm using a VersaMax® Elisa (VE) microplate reader (Molecular Devices, San Jose, CA, USA) to determine tyrosinase inhibition activity. A VE microplate reader was used in all subsequent experiments to measure optical density. All experiments were carried out independently three times.

The nature of test [3]: ABTS radical scavenging assay. The following applies: 100 μM. As for the experimental part: The ABTS^+ radical solution was obtained by mixing ABTS and potassium persulfate, an oxidizing reagent, and test samples (1–13 and Trolox [positive control]; final concentration: 100 μM) were added to determine their ABTS^+ radical scavenging ability by measuring the optical density at 732 nm.
To prepare ABTS^•+ stock solution, equal amounts of ABTS (14 mM aqueous solution) and K2S2O8 (4.9 mM aqueous solution) were mixed and stored in the dark at 18 °C for 15 h. The prepared ABTS^•+ solution was diluted in ethanol to adjust the absorbance to 0.7 ± 0.01 at 732 nm. The test samples (Trolox [positive control] and compounds 1–13) were dissolved in a cosolvent of ethanol and DMSO (10:1 [v/v]). The adjusted ABTS^•+ solution (90 μL) and test sample (10 μL) were added to each well of a 96-well plate, and the plate was stored in a dark place at 18 °C for 2 min. The optical density was measured at 732 nm every min for 10 min. The test sample solutions were tested at a final concentration of 100 μM. The percentage of radical scavenging activity was calculated as follows: % Radical scavenging activity = 100 × [(Absc − Abst)/Absc], where Abst and Absc are optical densities of the test sample and control, respectively.

Where two headings read alike, the source gives them in different places.

mushroom tyrosinase, sequence (C7FF04 2-392): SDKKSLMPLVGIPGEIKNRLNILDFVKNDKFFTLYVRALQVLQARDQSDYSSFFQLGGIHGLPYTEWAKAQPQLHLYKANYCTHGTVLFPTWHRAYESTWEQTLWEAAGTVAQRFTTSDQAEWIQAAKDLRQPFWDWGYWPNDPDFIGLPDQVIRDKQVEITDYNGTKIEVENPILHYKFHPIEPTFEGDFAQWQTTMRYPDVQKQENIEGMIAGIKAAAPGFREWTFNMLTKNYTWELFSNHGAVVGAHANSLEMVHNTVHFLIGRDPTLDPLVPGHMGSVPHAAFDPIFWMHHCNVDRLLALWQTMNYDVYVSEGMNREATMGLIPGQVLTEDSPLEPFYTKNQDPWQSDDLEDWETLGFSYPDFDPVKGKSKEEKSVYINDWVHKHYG

With `O=C1O[C@H]([C@@H](O)CO)C(O)=C1O` [AA, Ascorbic acid, reference compound], in test [1], the “DPPH radical scavenging (inhibition)” value is reported as 96%.

The term inhibition denotes how much of the control response was suppressed. Consider `COc1cc(-c2nc3cc4c(cc3s2)OCO4)ccc1O` [Compound 1, 4-([1,3]Dioxolo[4′,5′:4,5]benzo[1,2-d]thiazol-6-yl)-2-methoxyphenol], for which the results for the inhibition at 50 µM in test [2] (substrate L-dopa) and in test [2] (substrate L-tyrosine) were 1.7% and 25.9%, respectively. Also, in test [3], the “ABTS^+ radical scavenging activity (inhibition rate)” value was over 77%.

On to `CCOc1cc(-c2nc3cc4c(cc3s2)OCO4)ccc1O` [Compound 2, 4-([1,3]Dioxolo[4′,5′:4,5]benzo[1,2-d]thiazol-6-yl)-2-ethoxyphenol], for which the inhibition at 50 µM was 50.3% in test [2] (substrate L-dopa) and 14.9% in test [2] (substrate L-tyrosine). In addition, the “ABTS^+ radical scavenging activity (inhibition rate)” value in test [3] is over 77%.

Regarding `COc1ccc(-c2nc3cc4c(cc3s2)OCO4)cc1` [Compound 3, 6-(4-Methoxyphenyl)-[1,3]dioxolo[4′,5′:4,5]benzo[1,2-d]thiazole], the inhibition at 50 µM in test [2] (substrate L-dopa) is 17.2%; in test [2] (substrate L-tyrosine) it was 11.1%.

For the compound `COc1ccc(-c2nc3cc4c(cc3s2)OCO4)cc1O` [Compound 4, 5-([1,3]Dioxolo[4′,5′:4,5]benzo[1,2-d]thiazol-6-yl)-2-methoxyphenol], the inhibition at 50 µM in test [2] (substrate L-dopa) is 63%; in test [2] (substrate L-tyrosine), 25.5%. Moreover, the “ABTS^+ radical scavenging activity (inhibition rate)” value in test [3] was over 77%.

In the case of `Oc1ccc(-c2nc3cc4c(cc3s2)OCO4)cc1Br` [Compound 6, 4-([1,3]Dioxolo[4′,5′:4,5]benzo[1,2-d]thiazol-6-yl)-2-bromophenol], the figures for the inhibition at 50 µM in test [2] (substrate L-dopa) and in test [2] (substrate L-tyrosine) were 27.9% and 17%, respectively.

`Oc1c(Br)cc(-c2nc3cc4c(cc3s2)OCO4)cc1Br` [Compound 7, 4-([1,3]Dioxolo[4′,5′:4,5]benzo[1,2-d]thiazol-6-yl)-2,6-dibromophenol]: the inhibition at 50 µM was 29.7% in test [2] (substrate L-dopa) and 17.7% in test [2] (substrate L-tyrosine).

In the case of `Oc1ccc(-c2nc3cc4c(cc3s2)OCO4)cc1O` [Compound 8, 4-([1,3]Dioxolo[4′,5′:4,5]benzo[1,2-d]thiazol-6-yl)benzene-1,2-diol], the inhibition at 50 µM in test [2] (substrate L-dopa) is 18.6%; in test [2] (substrate L-tyrosine), 4.95%. In addition, the “DPPH radical scavenging (inhibition)” value in test [1] turned out to be 82%. For the same compound, the “ABTS^+ radical scavenging activity (inhibition rate)” value in test [3] came to 99%.

In the case of `COc1cc(-c2nc3cc4c(cc3s2)OCO4)cc(OC)c1O` [Compound 10, 4-([1,3]Dioxolo[4′,5′:4,5]benzo[1,2-d]thiazol-6-yl)-2,6-dimethoxyphenol], the inhibition at 50 µM in test [2] (substrate L-dopa) was 53.2%; in test [2] (substrate L-tyrosine), 0.54%. In test [3], the “ABTS^+ radical scavenging activity (inhibition rate)” value worked out at 96%.

For `COc1ccc(-c2nc3cc4c(cc3s2)OCO4)cc1OC` [Compound 11, 6-(3,4-Dimethoxyphenyl)-[1,3]dioxolo[4′,5′:4,5]benzo[1,2-d]thiazole], the values for the inhibition at 50 µM in test [2] (substrate L-dopa) and in test [2] (substrate L-tyrosine) were 19.5% and 0.82%, respectively.

Turning to `COc1ccc(-c2nc3cc4c(cc3s2)OCO4)c(OC)c1` [Compound 12, 6-(2,4-Dimethoxyphenyl)-[1,3]dioxolo[4′,5′:4,5]benzo[1,2-d]thiazole], the inhibition at 50 µM in test [2] (substrate L-dopa) is 32.8%; in test [2] (substrate L-tyrosine) it was 10.6%.

Consider `COc1cc(-c2nc3cc4c(cc3s2)OCO4)cc(OC)c1OC` [Compound 13, 6-(3,4,5-Trimethoxyphenyl)-[1,3]dioxolo[4′,5′:4,5]benzo[1,2-d]thiazole], for which the figures for the inhibition at 50 µM in test [2] (substrate L-dopa) and in test [2] (substrate L-tyrosine) were 5% and 16.6%, respectively.

As to `Cc1c(C)c2c(c(C)c1O)CCC(C)(C(=O)O)O2` (stereo not drawn) [Trolox, reference compound], the “ABTS^+ radical scavenging activity (inhibition rate)” value in test [3] is given as 99%.
